The record followed here is PubChem BioAssay (NCI).

The structures appear in SMILES notation.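 Five compound concentrations were applied to cells in 96-well plates for 48 hours; endpoints were derived by simple linear interpolation of the resulting dose-response curve. TGI marks complete inhibition of growth.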

Test systems include SK-OV-3 ovarian; U251 CNS; HL-60(TB) leukemia; MOLT-4 leukemia; M14 melanoma; SK-MEL-5 melanoma; SF-539 CNS; RXF 393 renal; NCI-H23 lung; SF-268 CNS.
Holding throughout (experiment): growth of human tumour cells (NCI), 48 h

For the molecule `Cc1ccc(C(=O)OC[C@H]2CC[C@@H](n3cc(N(C)C4CCCCC4)c(=O)[nH]c3=O)O2)cc1`, the TGI was above 100 µM with SK-OV-3 ovarian; 38.7 µM in the test on U251 CNS; above 100 µM with HL-60(TB) leukemia; above 100 µM with MOLT-4 leukemia; 32.6 µM in the test on M14 melanoma; 40.1 µM with SK-MEL-5 melanoma. Moreover, the TGI in the test with SF-539 CNS was 53 µM; with RXF 393 renal, 37.7 µM; with NCI-H23 lung it was above 100 µM; with SF-268 CNS it was 86.5 µM.
On to `CCOC(=O)/C(=C\NCC(O)c1ccccc1)c1nc2ccccc2[nH]1` (stereo not drawn), for which the TGI was above 100 µM with SK-OV-3 ovarian; 37.1 µM in the test on HL-60(TB) leukemia; 34.3 µM in the test with MOLT-4 leukemia; 93.5 µM in the test on M14 melanoma; 22.9 µM in the test with SK-MEL-5 melanoma; 47.8 µM in the test with SF-539 CNS. Moreover, the results for the TGI in the test on RXF 393 renal, in the test on NCI-H23 lung and with SF-268 CNS were above 100 µM, 59.6 µM and 40.5 µM, respectively.
Turning to `C=CC[C@H]1[C@@H](O[Si](C)(C)C(C)(C)C)[C@H](n2ccc(=O)[nH]c2=O)O[C@@H]1CO[Si](C)(C)C(C)(C)C`, the TGI amounted to 2.68 µM with SK-OV-3 ovarian; 4.44 µM in the test with U251 CNS; 2.59 µM with HL-60(TB) leukemia; 8.66 µM in the test with MOLT-4 leukemia; 3.23 µM in the test with M14 melanoma; 3.18 µM in the test on SK-MEL-5 melanoma. The TGI in the test with SF-539 CNS came to 10.4 µM; in the test with RXF 393 renal it was 3.63 µM; with NCI-H23 lung, 5.93 µM; in the test on SF-268 CNS it was 8.64 µM.
As to `CC(C)(CN)CN`, the TGI with SK-OV-3 ovarian, in the test with U251 CNS, in the test with HL-60(TB) leukemia, in the test with MOLT-4 leukemia, in the test on M14 melanoma and in the test on SK-MEL-5 melanoma was above 100 µM each time. Further, the TGI with SF-539 CNS, in the test with RXF 393 renal, in the test on NCI-H23 lung and in the test on SF-268 CNS was above 100 µM in each case.
For `Oc1ccc(/C=C\c2nnc(/C=C\c3ccc(O)c(O)c3)s2)cc1O`, the TGI stood at 26.5 µM in the test with SK-OV-3 ovarian; 13.5 µM in the test with U251 CNS; 2.94 µM in the test on HL-60(TB) leukemia; 11.7 µM with MOLT-4 leukemia; 26 µM in the test on M14 melanoma; 13.9 µM in the test with SK-MEL-5 melanoma. For the same molecule, the TGI in the test on SF-539 CNS stood at 13.8 µM; in the test with RXF 393 renal, 18.5 µM; with NCI-H23 lung, 17.7 µM; in the test with SF-268 CNS it was 14.8 µM.
Consider `CCNC(=O)Nc1cccc(C)n1`, for which the TGI with SK-OV-3 ovarian, in the test on U251 CNS, in the test on HL-60(TB) leukemia, in the test with MOLT-4 leukemia, with M14 melanoma and in the test with SK-MEL-5 melanoma was above 100 µM in each case. Moreover, the TGI in the test with SF-539 CNS, in the test on RXF 393 renal, in the test with NCI-H23 lung and with SF-268 CNS was above 100 µM each time.
Regarding `Cn1ccnc1S/C(=C\C=C(C#N)C#N)c1ccc(Cl)cc1`, the TGI with SK-OV-3 ovarian stood at 38.8 µM; with U251 CNS, 6.85 µM; with HL-60(TB) leukemia, 3.42 µM; with MOLT-4 leukemia, 6.25 µM; with M14 melanoma, 5.02 µM; in the test with SK-MEL-5 melanoma it was 3.59 µM. Besides, the TGI in the test on SF-539 CNS was determined as 6.58 µM; with RXF 393 renal, 5.4 µM; with NCI-H23 lung, 5.31 µM; in the test on SF-268 CNS it was 14.4 µM.
Consider `CC(C)/C(Cl)=N/OC(=O)Nc1ccc(F)c(Cl)c1`, for which the TGI with SK-OV-3 ovarian worked out at 30 µM; in the test on U251 CNS it was 40.3 µM; in the test on HL-60(TB) leukemia, 5.23 µM; in the test on MOLT-4 leukemia it was 4.72 µM; with M14 melanoma, 10.6 µM; in the test on SK-MEL-5 melanoma it was 28.2 µM. In addition, the TGI with SF-539 CNS stood at 20.9 µM; with RXF 393 renal, 25.6 µM; in the test with NCI-H23 lung, 27.8 µM; with SF-268 CNS, 40.3 µM.
Consider `Cc1ccc([N+](=O)[O-])cc1S(=O)(=O)Nc1ccc(C2=NN(c3ccc([N+](=O)[O-])cc3[N+](=O)[O-])C(c3ccccc3)C2)cc1` (stereo not drawn), for which the TGI in the test with SK-OV-3 ovarian was found to be 65.8 µM; in the test with U251 CNS, 25.3 µM; with HL-60(TB) leukemia, 57.5 µM; with MOLT-4 leukemia, 70.8 µM; in the test with M14 melanoma it was 51.1 µM; with SK-MEL-5 melanoma it was 25.1 µM. The TGI in the test with SF-539 CNS worked out at 50.8 µM; with RXF 393 renal it was 33.4 µM; in the test with NCI-H23 lung it was 31.5 µM; in the test with SF-268 CNS, 28 µM.
As for `COc1cc(-c2nc3cc(F)ccc3s2)ccc1O`, the TGI in the test on SK-OV-3 ovarian, in the test on U251 CNS, in the test with HL-60(TB) leukemia, with MOLT-4 leukemia, with M14 melanoma and in the test with SK-MEL-5 melanoma was above 100 µM in each case. Moreover, the TGI in the test on SF-539 CNS, in the test on RXF 393 renal, in the test on NCI-H23 lung and in the test on SF-268 CNS was above 100 µM in each case.
Regarding `COC(=O)CCCc1ccc2c(c1)CC1(C2)Cc2cc3c(cc2C1)CCCC3`, the TGI is above 100 µM in the test with SK-OV-3 ovarian; above 100 µM with U251 CNS; 29.2 µM with HL-60(TB) leukemia; 38.9 µM in the test on MOLT-4 leukemia; 68.2 µM in the test on M14 melanoma; 41.2 µM in the test with SK-MEL-5 melanoma. Besides, the TGI was above 100 µM with SF-539 CNS, 94.2 µM with RXF 393 renal and above 100 µM in the test on NCI-H23 lung.
On to `COC(=O)/C=C/c1ccccc1N=[S@](C)(=O)c1ccc(C)cc1`, for which the TGI was above 100 µM in the test on SK-OV-3 ovarian; 51 µM in the test on U251 CNS; 7.25 µM in the test on HL-60(TB) leukemia; above 100 µM in the test on MOLT-4 leukemia; 55.1 µM in the test with M14 melanoma; 38.3 µM with SK-MEL-5 melanoma. Moreover, the TGI was above 100 µM in the test with SF-539 CNS, 37.1 µM with RXF 393 renal, above 100 µM in the test with NCI-H23 lung and above 100 µM in the test with SF-268 CNS.
As to `COc1cc(OC)c2c(O)cc(CC(C)O)cc2c1` (stereo not drawn), the TGI in the test on SK-OV-3 ovarian, in the test with U251 CNS, in the test with HL-60(TB) leukemia, with MOLT-4 leukemia, with M14 melanoma and with SK-MEL-5 melanoma was above 100 µM in each case. The TGI with SF-539 CNS, with RXF 393 renal, in the test on NCI-H23 lung and in the test with SF-268 CNS was above 100 µM in each case.
